The values that follow come from patent publication US5840917A, “Phosphorylamides, their preparation and use” (Takeda Chemical Industries, Ltd., priority 1995, dated 1998).

T1 sequence (P69996 whole entry, looked up): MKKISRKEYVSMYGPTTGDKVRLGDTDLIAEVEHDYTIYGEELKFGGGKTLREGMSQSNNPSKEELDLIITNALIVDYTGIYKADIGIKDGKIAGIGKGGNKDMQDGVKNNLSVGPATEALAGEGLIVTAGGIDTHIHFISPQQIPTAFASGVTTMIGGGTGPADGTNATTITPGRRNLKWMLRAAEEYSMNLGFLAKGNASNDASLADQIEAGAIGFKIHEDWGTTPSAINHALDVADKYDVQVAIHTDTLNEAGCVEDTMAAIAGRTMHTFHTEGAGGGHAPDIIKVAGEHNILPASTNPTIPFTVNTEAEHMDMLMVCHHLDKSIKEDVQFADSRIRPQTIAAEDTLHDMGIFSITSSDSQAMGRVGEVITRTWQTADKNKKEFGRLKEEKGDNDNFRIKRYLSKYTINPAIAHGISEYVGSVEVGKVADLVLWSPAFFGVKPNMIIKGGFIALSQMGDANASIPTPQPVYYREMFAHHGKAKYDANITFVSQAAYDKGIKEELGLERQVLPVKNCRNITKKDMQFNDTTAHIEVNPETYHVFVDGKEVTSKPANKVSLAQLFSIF

The first experiment addresses T1, Helicobacter pylori-derived urease (Helicobacter pylori, UniProt P69996).
T1 construct: an urease solution prepared from Helicobacter pylori; endogenous in cells
Nature of the experiment: Screening of urease inhibitors (ammonia yield from urea). The format is biochemical.
Details: not given
On the procedure:
Screening of Urease Inhibitors
One hundred (100) μl of 100 mM Bis-Tris buffer (pH 6.5) and 60 μl of an urease solution prepared from Helicobacter pylori were added to 20 μl of a test drug dissolved in 0.1% dimethylformamide solution. The mixture was incubated at room temperature for 30 minutes, and then 20 μl of 100 mM urea was added. The mixture was kept at room temperature for 10 minutes, and then the yielded ammonia in the incubation mixture was measured using a commercial test kit (Ammonia Test Wako®; Wako Pure Chemical). The percent inhibition against the yield of ammonia in the solvent addition group was calculated to obtain the IC50 value.
`NP(N)(=O)NC(=O)CSc1nc2ccccc2o1` [Example 63, N-(Diaminophosphinyl)-2-benzoxazolylthioacetamide] showed an IC50 of 5.6 nM.
The same measure, in the same setting: with `NP(N)(=O)NC(=O)CSc1nc2ccccc2s1` [Example 64, N-(Diaminophosphinyl)-2-benzothiazolylthioacetamide] the figure was 2.9 nM.
With `NP(N)(=O)NC(=O)CSc1nc2cc(Cl)ccc2s1` [Example 65, N-(Diaminophosphinyl)-5-chloro-2-benzothiazolylthioacetamide], the IC50 was found to be 2.3 nM.
As to `NP(N)(=O)NC(=O)c1cc2ccccc2o1` [Example 67, N-(Diaminophosphinyl)-2-benzofurancarboxamide], the 50% inhibitory concentration (IC50) came to 6.1 nM.
`Cc1nc2cc(C(=O)NP(N)(N)=O)ccc2o1` [Example 68, N-(Diaminophosphinyl)-2-methyl-5-benzoxazolecarboxamide] had a half-maximal inhibitory concentration (IC50) of 18 nM.
The same measure, in the same setting: for `NP(N)(=O)NC(=O)C=Cc1nc2ccccc2o1` [Example 69, N-(Diaminophosphinyl)-3-(2-benzoxazolyl)propenamide] the value was 9.7 nM.
Same read-out and setting: with `NP(N)(=O)NC(=O)c1nc2ccccc2s1` [Example 70, N-(Diaminophosphinyl)-2-benzothiazolecarboxamide] the figure was 13 nM; with `Cc1ccc2c(Cl)c(C(=O)NP(N)(N)=O)sc2c1` [Example 71, N-(Diaminophosphinyl)-3-chloro-6-methylbenzothiophenecarboxamide], 1.9 nM; with `NP(N)(=O)NC(=O)C=Cc1nc2cc(Cl)ccc2o1` [Example 72, N-(Diaminophosphinyl)-3-(5-chloro-2-benzoxazolyl)propenamide], 3.6 nM.
Same read-out and setting: for `Cc1onc(-c2ccccc2)c1C(=O)NP(N)(N)=O` [Example 73, N-(Diaminophosphinyl)-5-methyl-3-phenyl-4-isoxazolecarboxamide] the value was 55 nM; for `NP(N)(=O)NC(=O)c1sc2ccccc2c1Cl` [Example 74, N-(Diaminophosphinyl)-3-chloro-2-benzothiophenecarboxamide], 5.1 nM.
`NP(N)(=O)NC(=O)Cc1noc2ccccc12` [Example 75, N-(Diaminophosphinyl)-3-benzisoxazolylacetamide] came in with an IC50 of 22 nM.
Compound `NP(N)(=O)NC(=O)C=Cc1cc(Br)cs1` [Example 77, N-(Diaminophosphinyl)-3-(4-bromo-2-thienyl)propenamide] returned an IC50 of 8.1 nM.
On the same count and under the same terms, for `NP(N)(=O)NC(=O)C=Cc1cccs1` [Example 78, N-(Diaminophosphinyl)-3-(2-thienyl)propenamide] the value was 4.7 nM.
Same read-out and setting: for `N#CC(=Cc1cccs1)C(=O)NP(N)(N)=O` [Example 79, N-(Diaminophosphinyl)-2-cyano-3-(2-thienyl)propenamide] the value was 6 nM; for `NP(N)(=O)NC(=O)Cc1cccs1` [Example 80, N-(Diaminophosphinyl)-2-thienylacetamide], 4.4 nM; for `NP(N)(=O)NC(=O)Cc1ccsc1` [Example 81, N-(Diaminophosphinyl)-3-thienylacetamide], 7.9 nM.
Same read-out and setting: with `NP(N)(=O)NC(=O)CCc1nc2ccccc2o1` [Example 82, N-(Diaminophosphinyl)-3-(2-benzoxazolyl)propionamide] the figure was 27 nM; with `NP(N)(=O)NC(=O)Cn1cnc2ccccc21` [Example 83, N-(Diaminophosphinyl)-1-benzimidazolylacetamide], 7 nM.
In turn, `NP(N)(=O)NC(=O)c1cc(Cl)cs1` [Example 84, N-(Diaminophosphinyl)-4-chloro-2-thiophenecarboxamide] gave an IC50 of 2.5 nM.
The same measure, in the same setting: for `Cc1cscc1C(=O)NP(N)(N)=O` [Example 85, N-(Diaminophosphinyl)-4-methyl-3-thiophenecarboxamide] the value was 2.2 nM; for `NP(N)(=O)NC(=O)c1cc(Br)sc1Cl` [Example 86, N-(Diaminophosphinyl)-5-bromo-2-chloro-3-thiophenecarboxamide], 0.9 nM; for `Cc1c(C(=O)NP(N)(N)=O)csc1Cl` [Example 87, N-(Diaminophosphinyl)-5-chloro-4-methyl-3-thiophenecarboxamide], 2.5 nM.
The same measure, in the same setting: for `Cc1c(Cl)sc(Cl)c1C(=O)NP(N)(N)=O` [Example 88, N-(Diaminophosphinyl)-2,5-dichloro-4-methyl-3-thiophenecarboxamide] the value was 3.3 nM.
Compound `Cc1cc(C(=O)NP(N)(N)=O)c(Cl)s1` [Example 89, N-(Diaminophosphinyl)-2-chloro-5-methyl-3-thiophenecarboxamide] came in with a 50% inhibitory concentration (IC50) of 2.6 nM.
For the compound `Cc1csc(C(=O)NP(N)(N)=O)c1Cl` [Example 90, N-(Diaminophosphinyl)-3-chloro-4-methyl-2-thiophenecarboxamide], 6.3 nM corresponded to half-maximal inhibition (IC50).
The same measure, in the same setting: for `Cc1cc(C)c(C(=O)NP(N)(N)=O)s1` [Example 91, N-(Diaminophosphinyl)-3,5-dimethyl-2-thiophenecarboxamide] the value was 6.3 nM; for `Cc1ccoc1C(=O)NP(N)(N)=O` [Example 92, N-(Diaminophosphinyl)-3-methyl-2-furancarboxamide], 6 nM.
`NP(N)(=O)NC(=O)c1cccnc1` [Reference Example 2, N-(Diaminophosphinyl)-3-pyridinecarboxamide] returned a 50% inhibitory concentration (IC50) of 9.6 nM.
`NP(N)(=O)NC(=O)c1ccc([N+](=O)[O-])cc1` [Reference Example 3, N-(Diaminophosphinyl)-4-nitrobenzamide] showed an IC50 of 6.6 nM.
Still for that read-out and setting: for `NP(N)(=O)NC(=O)C=Cc1ccccc1` [Reference Example 4, N-(Diaminophosphinyl)cinnamamide] the value was 10 nM; for `NP(N)(=O)NC(=O)Cc1ccccc1` [Reference Example 6, N-(Diaminophosphinyl)-phenylacetamide], 15 nM; for `NP(N)(=O)NC(=O)c1cccc(F)c1` [Reference Example 8, N-(Diaminophosphinyl)-3-fluorobenzamide], 4.5 nM.
Same read-out and setting: for `NP(N)(=O)NC(=O)c1c(F)cccc1F` [Reference Example 9, N-(Diaminophosphinyl)-2,6-difluorobenzamide] the value was 9.7 nM; for `NP(N)(=O)NC(=O)c1ccc(F)cc1F` [Reference Example 10, N-(Diaminophosphinyl)-2,4-difluorobenzamide], 7.8 nM; for `COc1ccc(C(=O)NP(N)(N)=O)cc1` [Reference Example 12, N-(diaminophosphinyl)-4-methoxybenzamide], 44 nM.
Same read-out and setting: for `Cc1ccc(C(=O)NP(N)(N)=O)cc1` [Reference Example 15, N-(Diaminophosphinyl)-4-methylbenzamide] the value was 17 nM; for `NP(N)(=O)NC(=O)c1ccccc1F` [Reference Example 16, N-(Diaminophosphinyl)-2-fluorobenzamide], 2.7 nM.
`NP(N)(=O)NC(=O)CCc1ccccc1` [Reference Example 37, N-(Diaminophosphinyl)-3-phenylpropionamide] had an IC50 of 17 nM.
The same measure, in the same setting: for `NP(N)(=O)NC(=O)CCc1ccc(F)cc1` [Reference Example 38, N-(Diaminophosphinyl)-3-(4-fluorophenyl)propionamide] the value was 9.7 nM.
The same measure, in the same setting: for `NP(N)(=O)NC(=O)c1ccc(Cl)cc1` [compound 7, N-(Diaminophosphinyl)-4-chlorobenzamide] the value was 6.9 nM.
`NP(N)(=O)NC(=O)c1ccccc1[N+](=O)[O-]` [compound 18, N-(Diaminophosphinyl)-2-nitrobenzamide] came in with a concentration for half-maximal inhibition (IC50) of 5.1 nM.
On to `NP(N)(=O)NC(=O)c1ccc(C(F)(F)F)cc1` [compound 19, N-(Diaminophosphinyl)-4-trifluoromethylbenzamide], for which half-maximal inhibition (IC50) was put at 12 nM.
On to `NP(N)(=O)NC(=O)C=Cc1ccc(F)cc1` [compound 20, N-(Diaminophosphinyl)-4-fluorocinnamamide], for which the IC50 is 6.5 nM.
The same measure, in the same setting: with `NP(N)(=O)NC(=O)c1cc(F)cc(F)c1` [compound 21, N-(Diaminophosphinyl)-3,5-difluorobenzamide] the figure was 7.9 nM; with `NP(N)(=O)NC(=O)c1ccccc1C(F)(F)F` [compound 24, N-(Diaminophosphinyl)-2-trifluoromethylbenzamide], 8 nM.
Regarding `NP(N)(=O)NC(=O)c1cccc2ccccc12` [compound 26, N-(Diaminophosphinyl)-1-naphthalenecarboxamide], the IC50 is 13 nM.
In turn, `NP(N)(=O)NC(=O)c1cccc(Cl)c1` [compound 27, N-(Diaminophosphinyl)-3-chlorobenzamide] had a half-inhibitory concentration (IC50) of 3.9 nM.
Still for that read-out and setting: for `NP(N)(=O)NC(=O)c1ccc2ccccc2c1` [compound 28, N-(Diaminophosphinyl)-2-naphthalenecarboxamide] the value was 35 nM; for `NP(N)(=O)NC(=O)C=Cc1ccc(Cl)cc1` [compound 31, N-(Diaminophosphinyl)-4-chlorocinnamamide], 71 nM.
On the same count and under the same terms, for `N#Cc1ccc(C=CC(=O)NP(N)(N)=O)cc1` [compound 32, N-(Diaminophosphinyl)-4-cyanocinnamamide] the value was 14 nM.
The same measure, in the same setting: with `NP(N)(=O)NC(=O)C=Cc1ccccc1[N+](=O)[O-]` [compound 33, N-(Diaminophosphinyl)-2-nitrocinnamamide] the figure was 8.3 nM; with `NP(N)(=O)NC(=O)C=Cc1ccc(F)cc1F` [compound 34, N-(Diaminophosphinyl)-2,4-difluorocinnamamide], 22 nM.

Staying with this experiment, now noted: Bis-Tris pH 6.5, room temperature, 30 min preincubation, 10 min with urea; read-out: IC50, inhibitory effect against Helicobacter pylori-derived urease.
Turning to `CCOc1ccc2sc(SCC(=O)NP(N)(N)=O)nc2c1` [Example 66, N-(Diaminophosphinyl)-5-ethoxy-2-benzothiazolylthioacetamide], the IC50 is 10 nM.
